Test results as given in patent US12662479B2 (Foghorn Therapeutics Inc., priority 2020, dated 2026).

How the values were obtained:
HiBit-BRM fusion protein = target: T1, HiBit-BRM fusion protein (Homo sapiens, UniProt P51531); test: HiBiT-BRM cell-based degradation assay (Nano-Glo HiBiT Lytic Detection, 24 h); settings: HeLa cells expressing HiBiT-BRM; for DC50: read-out: BRM HiBit Degradation IC50; for BRM HiBit Degradation Maximum measured: top dose 30 μM
T1 construct: expressed in transfected cells
Summary of the method: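 Residual HiBiT-BRM in a stable HeLa line was measured by Nano-Glo lytic luminescence after 24 h compound exposure (top final dose 30 μM, 3-fold, 10 points, duplicate). Values are % degradation, scaled between DMSO-treated cells and cells given 2 μM of a known BRM/BRG1 degrader.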

[1] = target: T2, HiBit-BRG1 fusion protein (Homo sapiens, UniProt P51532); test: HiBiT-BRG1 cell-based degradation assay (Nano-Glo HiBiT Lytic Detection, 24 h); settings: HeLa cells expressing HiBit-BRG1 and LgBit; for DC50: read-out: BRG1 HiBit Degradation IC50; for Dmax: HeLa, top dose 30 μM, read-out: BRG1 HiBit Degradation Maximum measured
T2 construct: expressed in transfected cells
Summary of the method: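 Degradation is scaled from DMSO-treated cells (0%) to cells given 2 μM of a known BRM/BRG1 degrader (100%). HeLa cells stably carrying HiBiT-BRG1 plus LgBiT (5000/well) were lysed with Nano-Glo HiBiT detection reagent, shaken 10 min at RT, and luminescence read.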

T2 sequence (P51532 whole entry, the tested form may be a part): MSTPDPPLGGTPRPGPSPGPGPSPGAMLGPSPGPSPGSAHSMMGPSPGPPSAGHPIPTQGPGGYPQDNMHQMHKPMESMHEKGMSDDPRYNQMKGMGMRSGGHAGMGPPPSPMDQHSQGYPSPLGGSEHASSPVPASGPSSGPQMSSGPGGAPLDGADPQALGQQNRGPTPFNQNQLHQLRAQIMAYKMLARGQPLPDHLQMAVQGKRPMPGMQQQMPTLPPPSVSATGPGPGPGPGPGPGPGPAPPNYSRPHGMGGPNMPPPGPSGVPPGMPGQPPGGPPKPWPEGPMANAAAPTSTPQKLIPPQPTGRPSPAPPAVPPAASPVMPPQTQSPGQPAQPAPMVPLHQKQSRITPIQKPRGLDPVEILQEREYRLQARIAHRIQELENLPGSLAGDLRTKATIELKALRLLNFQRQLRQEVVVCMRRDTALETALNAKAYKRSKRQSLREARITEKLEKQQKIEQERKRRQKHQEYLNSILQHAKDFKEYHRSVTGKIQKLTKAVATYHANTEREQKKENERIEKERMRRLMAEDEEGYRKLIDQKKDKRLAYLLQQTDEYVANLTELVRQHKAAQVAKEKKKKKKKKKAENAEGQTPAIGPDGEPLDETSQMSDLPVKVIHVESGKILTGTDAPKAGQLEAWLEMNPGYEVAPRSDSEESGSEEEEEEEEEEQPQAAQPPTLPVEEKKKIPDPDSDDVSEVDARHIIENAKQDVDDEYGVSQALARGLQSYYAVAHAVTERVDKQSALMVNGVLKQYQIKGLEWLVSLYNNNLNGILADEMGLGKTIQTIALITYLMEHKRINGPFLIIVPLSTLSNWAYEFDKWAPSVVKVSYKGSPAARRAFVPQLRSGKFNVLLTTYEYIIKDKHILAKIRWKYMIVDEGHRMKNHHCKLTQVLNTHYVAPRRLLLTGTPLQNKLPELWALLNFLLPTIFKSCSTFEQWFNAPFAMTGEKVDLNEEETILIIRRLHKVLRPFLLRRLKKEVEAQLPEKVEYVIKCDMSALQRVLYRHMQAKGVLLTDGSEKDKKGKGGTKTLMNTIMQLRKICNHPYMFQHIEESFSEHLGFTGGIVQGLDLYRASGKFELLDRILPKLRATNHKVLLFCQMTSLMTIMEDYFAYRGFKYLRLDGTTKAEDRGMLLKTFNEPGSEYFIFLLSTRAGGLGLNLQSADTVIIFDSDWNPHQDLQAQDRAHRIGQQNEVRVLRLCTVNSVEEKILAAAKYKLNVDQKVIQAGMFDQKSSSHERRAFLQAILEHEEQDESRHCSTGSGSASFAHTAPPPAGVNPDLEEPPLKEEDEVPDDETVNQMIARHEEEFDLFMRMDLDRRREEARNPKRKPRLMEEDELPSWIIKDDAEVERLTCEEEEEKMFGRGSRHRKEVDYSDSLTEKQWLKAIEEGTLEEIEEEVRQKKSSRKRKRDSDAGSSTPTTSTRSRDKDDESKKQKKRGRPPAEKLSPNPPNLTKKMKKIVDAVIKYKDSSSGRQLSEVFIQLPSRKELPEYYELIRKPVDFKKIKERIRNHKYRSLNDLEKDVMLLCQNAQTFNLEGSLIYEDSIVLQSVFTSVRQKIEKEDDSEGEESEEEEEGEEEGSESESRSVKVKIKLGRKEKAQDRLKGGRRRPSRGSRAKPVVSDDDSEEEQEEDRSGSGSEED
T1 sequence (P51531 whole entry, the tested form may be a part): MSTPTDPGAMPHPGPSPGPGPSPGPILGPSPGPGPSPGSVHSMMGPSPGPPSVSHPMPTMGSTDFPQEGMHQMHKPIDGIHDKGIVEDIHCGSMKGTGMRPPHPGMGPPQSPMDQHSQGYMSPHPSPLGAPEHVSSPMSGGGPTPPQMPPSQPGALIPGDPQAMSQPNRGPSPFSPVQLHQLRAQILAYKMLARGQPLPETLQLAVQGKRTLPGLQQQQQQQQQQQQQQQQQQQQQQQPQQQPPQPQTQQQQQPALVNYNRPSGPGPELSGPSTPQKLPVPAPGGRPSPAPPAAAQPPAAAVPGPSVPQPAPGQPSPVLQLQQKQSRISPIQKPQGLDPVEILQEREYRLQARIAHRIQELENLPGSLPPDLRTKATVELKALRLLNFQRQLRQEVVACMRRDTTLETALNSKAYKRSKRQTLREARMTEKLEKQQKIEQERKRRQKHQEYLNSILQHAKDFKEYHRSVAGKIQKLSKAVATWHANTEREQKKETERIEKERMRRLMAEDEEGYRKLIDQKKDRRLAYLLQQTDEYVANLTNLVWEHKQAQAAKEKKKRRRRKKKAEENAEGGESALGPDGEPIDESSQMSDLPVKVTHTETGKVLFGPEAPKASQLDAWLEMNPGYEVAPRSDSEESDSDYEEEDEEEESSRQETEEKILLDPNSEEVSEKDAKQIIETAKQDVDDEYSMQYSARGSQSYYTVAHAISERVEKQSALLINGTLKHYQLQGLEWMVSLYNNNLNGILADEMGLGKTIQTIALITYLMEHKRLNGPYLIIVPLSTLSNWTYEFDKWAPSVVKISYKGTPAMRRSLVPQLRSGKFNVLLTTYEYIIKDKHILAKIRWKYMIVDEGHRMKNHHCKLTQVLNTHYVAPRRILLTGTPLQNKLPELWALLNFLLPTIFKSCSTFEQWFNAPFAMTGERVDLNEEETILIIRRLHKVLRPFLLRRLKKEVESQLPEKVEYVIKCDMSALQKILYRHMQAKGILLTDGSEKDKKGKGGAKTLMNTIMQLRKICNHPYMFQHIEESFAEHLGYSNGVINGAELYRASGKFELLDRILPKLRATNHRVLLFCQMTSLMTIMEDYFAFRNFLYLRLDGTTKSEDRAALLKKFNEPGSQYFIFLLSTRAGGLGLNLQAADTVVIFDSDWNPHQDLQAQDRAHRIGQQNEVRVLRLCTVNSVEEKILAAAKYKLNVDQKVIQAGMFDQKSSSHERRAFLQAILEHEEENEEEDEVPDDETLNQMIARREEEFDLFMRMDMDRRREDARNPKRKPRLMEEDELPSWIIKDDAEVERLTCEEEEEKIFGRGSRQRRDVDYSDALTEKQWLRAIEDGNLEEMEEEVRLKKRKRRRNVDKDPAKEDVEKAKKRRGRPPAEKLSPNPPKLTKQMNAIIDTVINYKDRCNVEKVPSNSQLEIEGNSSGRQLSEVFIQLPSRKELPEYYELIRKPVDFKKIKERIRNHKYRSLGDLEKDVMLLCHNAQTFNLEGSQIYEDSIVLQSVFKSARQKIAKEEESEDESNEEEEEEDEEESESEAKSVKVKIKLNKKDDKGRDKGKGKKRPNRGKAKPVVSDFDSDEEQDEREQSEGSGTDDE

| SMILES | DC50 (HiBit-BRM fusion protein) | BRM HiBit Degradation Maximum measured (HiBit-BRM fusion protein) | DC50 [1] | Dmax [1] |
| --- | --- | --- | --- | --- |
| CS(=O)(=O)n1ccc(C(=O)N[C@@H](COCc2ccc(C(=O)N3CC4(CCN(CCCNc5ccc6c(c5)C(=O)N(C5CCC(=O)NC5=O)C6=O)CC4)C3)cc2)C(=O)Nc2nc(-c3ccccc3)cs2)c1 (stereo partly drawn) [Compound 234, (2S)-3-([4-[7-(3-[[2-(2,6-dioxopiperidin-3-yl)-1,3-dioxoisoindol-5-yl]amino]propyl)-2,7-diazaspiro[3.5]nonane-2-carbonyl]phenyl]methoxy)-2-[(1-methanesulfonylpyrrol-3-yl)formamido]-N-(4-phenyl-1,3-thiazol-2-yl)propanamide] | 100 to 1000 nM | B (‘B’ = Maximum degradation ≥50% and ≤75%) | 100 to 1000 nM | 50 to 75% |
| CS(=O)(=O)n1ccc(C(=O)N[C@@H](COCc2ccc(CNC(=O)C3CCN(CCOc4ccc5c(c4)C(=O)N(C4CCC(=O)NC4=O)C5=O)CC3)cc2)C(=O)Nc2nc(-c3ccccc3)cs2)c1 (stereo partly drawn) [Compound 216, 1-(2-[[2-(2,6-dioxopiperidin-3-yl)-1,3-dioxoisoindol-5-yl]oxy]ethyl)-N-[(4-[[(2S)-2-[(1-methanesulfonylpyrrol-3-yl)formamido]-2-[(4-phenyl-1,3-thiazol-2-yl)carbamoyl]ethoxy]methyl]phenyl)methyl]piperidine-4-carboxamide; formic acid] | 100 to 1000 nM | A (‘A’ = Maximum degradation >75%) | 100 to 1000 nM | > 75% |
| CS(=O)(=O)n1ccc(C(=O)N[C@@H](COCCCC(=O)NCCCCCCCCNc2cccc3c2C(=O)N(C2CCC(=O)NC2=O)C3=O)C(=O)Nc2nc(-c3ccccc3)cs2)c1 (stereo partly drawn) [Compound 186, N-(8-[[2-(2,6-dioxopiperidin-3-yl)-1,3-dioxoisoindol-4-yl]amino]octyl)-4-[(2S)-2-[(1-methanesulfonylpyrrol-3-yl)formamido]-2-[(4-phenyl-1,3-thiazol-2-yl)carbamoyl]ethoxy]butanamide] | > 10000 nM | C (‘C’ = Maximum degradation <50%) | > 10000 nM | < 50% |
| CS(=O)(=O)n1ccc(C(=O)NCC(=O)Nc2nc(-c3cccc(-c4ccnc(C5(C(=O)NCCOc6ccc7c(c6)C(=O)N(C6CCC(=O)NC6=O)C7=O)CC5)c4)c3)cs2)c1 (stereo not drawn) [Compound 161] | 100 to 1000 nM | B (‘B’ = Maximum degradation ≥50% and ≤75%) | 100 to 1000 nM | > 75% |
| CS(=O)(=O)n1ccc(C(=O)N[C@@H](CCOCCCC(=O)NCCOCCOCCNC(=O)COc2cccc3c2C(=O)N(C2CCC(=O)NC2=O)C3=O)C(=O)Nc2nc(-c3ccccc3)cs2)c1 (stereo partly drawn) [Compound 223, (2S)-4-[3-[(2-[2-[2-(2-[[2-(2,6-dioxopiperidin-3-yl)-1,3-dioxoisoindol-4-yl]oxy]acetamido)ethoxy]ethoxy]ethyl)carbamoyl]propoxy]-2-[(1-methanesulfonylpyrrol-3-yl)formamido]-N-(4-phenyl-1,3-thiazol-2-yl)butanamide] | > 10000 nM | C (‘C’ = Maximum degradation <50%) | > 10000 nM | < 50% |
| CS(=O)(=O)n1ccc(C(=O)N[C@@H](COCc2ccc(C(=O)N3CC(Oc4ccc5c(c4)C(=O)N(C4CCC(=O)NC4=O)C5=O)C3)cc2)C(=O)Nc2nc(-c3ccccc3)cs2)c1 (stereo partly drawn) [Compound 194, N-((2S)-3-((4-(3-((2-(2,6-dioxopiperidin-3-yl)-1,3-dioxoisoindolin-5-yl)oxy)azetidine-1-carbonyl)benzyl)oxy)-1-oxo-1-((4-phenylthiazol-2-yl)amino)propan-2-yl)-1-(methylsulfonyl)-1H-pyrrole-3-carboxamide] | > 10000 nM | C (‘C’ = Maximum degradation <50%) | > 10000 nM | < 50% |
| CS(=O)(=O)n1ccc(C(=O)N[C@@H](CCOCCCC(=O)N2CCN(CCCCCOc3ccc4c(c3)C(=O)N(C3CCC(=O)NC3=O)C4=O)CC2)C(=O)Nc2nc(-c3ccccc3)cs2)c1 (stereo partly drawn) [Compound 254, (2S)-4-[4-[4-(5-[[2-(2,6-dioxopiperidin-3-yl)-1,3-dioxoisoindol-5-yl]oxy]pentyl)piperazin-1-yl]-4-oxobutoxy]-2-[(1-methanesulfonylpyrrol-3-yl)formamido]-N-(4-phenyl-1,3-thiazol-2-yl)butanamide] | > 10000 nM | C (‘C’ = Maximum degradation <50%) | > 10000 nM | < 50% |
| CS(=O)(=O)n1ccc(C(=O)NCC(=O)Nc2nc(-c3cccc(-c4ccnc(C5(C(=O)N6CCN(CCOc7ccc8c(c7)C(=O)N(C7CCC(=O)NC7=O)C8=O)CC6)CC5)c4)c3)cs2)c1 (stereo not drawn) [Compound 150, N-(2-((4-(3-(2-(1-(4-(2-((2-(2,6-dioxopiperidin-3-yl)-1,3-dioxoisoindolin-5-yl)oxy)ethyl)piperazine-1-carbonyl)cyclopropyl)pyridin-4-yl)phenyl)thiazol-2-yl)amino)-2-oxoethyl)-1-(methylsulfonyl)-1H-pyrrole-3-carboxamide] | 100 to 1000 nM | B (‘B’ = Maximum degradation ≥50% and ≤75%) | 100 to 1000 nM | > 75% |
| CS(=O)(=O)n1ccc(C(=O)NCC(=O)Nc2nc(-c3cccc(-c4ccnc(C5(C(=O)NCCNc6ccc7c(c6)C(=O)N(C6CCC(=O)NC6=O)C7=O)CC5)c4)c3)cs2)c1 (stereo not drawn) [Compound 133, N-(2-[[2-(2,6-dioxopiperidin-3-yl)-1,3-dioxoisoindol-5-yl]amino]ethyl)-1-[4-[3-(2-[2-[(1-methanesulfonylpyrrol-3-yl)formamido]acetamido]-1,3-thiazol-4-yl)phenyl]pyridin-2-yl]cyclopropane-1-carboxamide] | 100 to 1000 nM | B (‘B’ = Maximum degradation ≥50% and ≤75%) | < 100 nM | > 75% |
| CS(=O)(=O)n1ccc(C(=O)N[C@@H](COCc2ccc(C(=O)NCCCCNc3ccc4c(c3)C(=O)N(C3CCC(=O)NC3=O)C4=O)cc2)C(=O)Nc2nc(-c3ccccc3)cs2)c1 (stereo partly drawn) [Compound 242] | 100 to 1000 nM | B (‘B’ = Maximum degradation ≥50% and ≤75%) | 100 to 1000 nM | 50 to 75% |
| CC(C)(C(=O)NCCCCCNc1cccc2c1C(=O)N(C1CCC(=O)NC1=O)C2=O)n1ccc(-c2cccc(-c3csc(NC(=O)CNC(=O)c4ccn(S(C)(=O)=O)c4)n3)c2)n1 (stereo not drawn) [Compound 7, N-[2-[[4-[3-[1-[2-[5-[[2-(2,6-dioxo-3-piperidyl)-1,3-dioxo-isoindolin-4-yl]amino]pentylamino]-1,1-dimethyl-2-oxo-ethyl]pyrazol-3-yl]phenyl]thiazol-2-yl]amino]-2-oxo-ethyl]-1-methylsulfonyl-pyrrole-3-carboxamide] | > 10000 nM | C (‘C’ = Maximum degradation <50%) | > 10000 nM | < 50% |

Other lines, results leading:

| DC50 (HiBit-BRM fusion protein) | BRM HiBit Degradation Maximum measured (HiBit-BRM fusion protein) | DC50 [1] | Dmax [1] | SMILES |
| --- | --- | --- | --- | --- |
| > 10000 nM | C (‘C’ = Maximum degradation <50%) | > 10000 nM | < 50% | Cc1ncsc1-c1ccc(CNC(=O)[C@@H]2C[C@@H](O)CN2C(=O)[C@@H](NC(=O)COCCOCCNC(=O)CCCOCC[C@H](NC(=O)c2ccn(S(C)(=O)=O)c2)C(=O)Nc2nc(-c3ccccc3)cs2)C(C)(C)C)cc1 [Compound 249, (2S,4R)-4-hydroxy-1-[(2S)-2-[2-[2-(2-[4-[(3S)-3-[(1-methanesulfonylpyrrol-3-yl)formamido]-3-[(4-phenyl-1,3-thiazol-2-yl)carbamoyl]propoxy]butanamido]ethoxy)ethoxy]acetamido]-3,3-dimethylbutanoyl]-N-[[4-(4-methyl-1,3-thiazol-5-yl)phenyl]methyl]pyrrolidine-2-carboxamide] |
| > 10000 nM | C (‘C’ = Maximum degradation <50%) | > 10000 nM | < 50% | CN(CC(=O)NCCCCCCCCNC(=O)COc1cccc2c1C(=O)N(C1CCC(=O)NC1=O)C2=O)c1cc(-c2cccc(-c3csc(NC(=O)CNC(=O)c4ccn(S(C)(=O)=O)c4)n3)c2)ccn1 (stereo not drawn) [Compound 15, N-(2-((4-(3-(2-((2-((8-(2-((2-(2,6-dioxopiperidin-3-yl)-1,3-dioxoisoindolin-4-yl)oxy)acetamido)octyl)amino)-2-oxoethyl)(methyl)amino)pyridin-4-yl)phenyl)thiazol-2-yl)amino)-2-oxoethyl)-1-(methylsulfonyl)-1H-pyrrole-3-carboxamide] |
| > 10000 nM | C (‘C’ = Maximum degradation <50%) | > 10000 nM | < 50% | CS(=O)(=O)n1ccc(C(=O)NCC(=O)Nc2nc(-c3cccc(-c4cccc(CNC(=O)CCOCCOCCOc5cccc6c5C(=O)N(C5CCC(=O)NC5=O)C6=O)c4)c3)cs2)c1 (stereo not drawn) [Compound 64, N-[2-[[4-[3-[3-[[3-[2-[2-[2-(2,6-dioxo-3-piperidyl)-1,3-dioxo-isoindolin-4-yl]oxyethoxy]ethoxy]propanoylamino]-methyl]phenyl]phenyl]thiazol-2-yl]amino]-2-oxo-ethyl]-1-methylsulfonyl-pyrrole-3-carboxamide] |
| > 10000 nM | C (‘C’ = Maximum degradation <50%) | > 10000 nM | < 50% | CN(CCNc1ccc2c(c1)C(=O)N(C1CCC(=O)NC1=O)C2=O)C(=O)C1(c2cc(-c3cccc(-c4csc(NC(=O)CNC(=O)c5ccn(S(C)(=O)=O)c5)n4)c3)ccn2)CC1 (stereo not drawn) [Compound 162, N-(2-[[2-(2,6-dioxopiperidin-3-yl)-1,3-dioxoisoindol-5-yl]amino]ethyl)-1-[4-[3-(2-[2-[(1-methanesulfonylpyrrol-3-yl)formamido]acetamido]-1,3-thiazol-4-yl)phenyl]pyridin-2-yl]-N-methylcyclopropane-1-carboxamide] |
